US20100129434A1, “COMPOSITIONS AND METHODS FOR THE TREATMENT OF MUCORMYCOSIS AND OTHER FUNGAL DISEASES” (priority 2006, published 2010)
In brackets after ≈: the same amount, converted by molar mass. Read-outs that look alike come from different tables or passages of the source.

Legend:
R. oryzae 99-892 = experiment: Kidney histopathology of DKA mice infected with R. oryzae; assay type: in vivo; conditions: 10 mg/kg bid
Method: For in vivo infection, BALB/c male mice (>20 g) were rendered diabetic with a single i.p. injection of 210 mg/kg streptozotocin in 0.2 ml citrate buffer 10 days prior to fungal challenge. Glycosuria and ketonuria were confirmed in all mice 7 days after streptozotocin treatment. For neutropenic mouse model, mice were injected with a single i.p. dose of 200 mg/kg cyclolphosphamide (Bristol Myer Squibb) 2 days prior to infection with R. oryzae. […] Mice were infected through the tail vein with the appropriate inocula of R. oryzae. To confirm the inocula, dilutions were streaked on PDA plates containing 0.1% triton and colonies were counted following a 24 h incubation period at 37° C. The primary efficacy endpoint was time to death. As a secondary endpoint, brain fungal burden (the primary target organ) was determined by homogenization by rolling a pipette on organs placed in Whirl-Pak™ bags (Nasco®, Fort Atkinson, Wis.) containing 1 ml saline. The homogenate was serially diluted in 0.85% saline and then quantitatively cultured on PDA. Values were expressed as log10 cfu g−1 tissue. […]
To determine the impact of deferasirox on tissue fungal burden, diabetic ketoacidotic mice were infected via the tail-vein with 4.2×10^4 spores of R. oryzae 99-892. […] Kidneys and brains were removed on day four, homogenized, and quantitatively cultured.

[1] = steady state; FDA-approved starting dose 20 mg/kg/d; cited from earlier work
Mucor spp. = experiment: Deferasirox susceptibility testing (MIC/MFC), Mucor clinical isolates; assay type: cell-based
Method: Minimum inhibitory concentration (MIC) and minimum fungicidal concentration (MFC) were determined for deferasirox by the method of Espinel-Ingroff using R. oryzae spores starved for iron (Espinel-Ingroff, (2001), supra). Cidality was defined as a <4-fold difference between MIC and MFC.
We next determined the deferasirox susceptibilities of multiple clinical isolates of Mucorales (Table 3). The MIC9OS of deferasirox against Mucor, non-oryzae Rhizopus spp., and R. oryzae were 3.12 to 6.25 μg/ml. MFCs were similar to MICs, and deferasirox was cidal for 28/29 (97%) of isolates. Of note, slight growth was seen within the first twelve hours even at extremely high concentrations of deferasirox. […] Furthermore, the MICs and MFCs of deferasirox against these isolates were well below clinically achievable peak (˜38 μg/ml) and trough serum levels (˜17 μg/ml) of the drug at steady state when administered at the FDA-approved starting dose (20 mg/kg/d).

R. oryzae [2] = experiment: Survival of neutropenic mice infected with R. oryzae; assay type: in vivo
Method: (§1) For in vivo infection, BALB/c male mice (>20 g) were rendered diabetic with a single i.p. injection of 210 mg/kg streptozotocin in 0.2 ml citrate buffer 10 days prior to fungal challenge. […] For neutropenic mouse model, mice were injected with a single i.p. dose of 200 mg/kg cyclolphosphamide (Bristol Myer Squibb) 2 days prior to infection with R. oryzae. […] Mice were infected through the tail vein with the appropriate inocula of R. oryzae. To confirm the inocula, dilutions were streaked on PDA plates containing 0.1% triton and colonies were counted following a 24 h incubation period at 37° C. The primary efficacy endpoint was time to death. As a secondary endpoint, brain fungal burden (the primary target organ) was determined by homogenization by rolling a pipette on organs placed in Whirl-Pak™ bags (Nasco®, Fort Atkinson, Wis.) containing 1 ml saline. The homogenate was serially diluted in 0.85% saline and then quantitatively cultured on PDA. Values were expressed as log10 cfu g−1 tissue. Finally, for histopathological analysis, infected organs were collected from mice and fixed in 10% zinc formalin. Fixed tissues were embedded in paraffin, and […] sections were stained with haematoxylin and eosin for light microscopy examination. All procedures involving mice were approved by the institutional animal use and care committee, following the National Institutes of Health guidelines for animal housing and care.
Two days later, mice were infected via the tail-vein with 2.7×10^3 spores of R. oryzae 99-892.

R. oryzae [3] = experiment: Tissue fungal burden of DKA mice infected with R. oryzae; assay type: in vivo, BALB/c male mice
Method: Briefly, for in vivo infection, BALB/c male mice (>20 g) were rendered diabetic with a single i.p. injection of 210 mg/kg streptozotocin in 0.2 ml citrate buffer 10 days prior to fungal challenge. […] Mice were infected through the tail vein with the appropriate inocula of R. oryzae. To confirm the inocula, dilutions were streaked on PDA plates and colonies were counted following a 24 h incubation period at room temperature. The primary efficacy endpoint was time to death. As a secondary endpoint, brain fungal burden (the primary target organ) was determined by homogenization by rolling a pipette on organs placed in Whirl-Pak bags (Nasco, Fort Atkinson, Wis.) containing 2 ml saline. The homogenate was serially diluted in 0.85% saline and then quantitatively cultured on PDA. Values were expressed as log 10 cfu g^−1 tissue. All procedures involving mice were approved by the institutional animal use and care committee, following the National Institutes of Health guidelines for animal housing and care.
as §1

[4] = 4.2×10^4 spores R. oryzae 99-892, 10 mg/kg bid, 3 days, vs placebo or deferasirox plus saturating ferric chloride

O=C(O)c1ccc(-n2nc(-c3ccccc3O)nc2-c2ccccc2O)cc1 [Deferasirox, 4-[3,5-Bis(2-hydroxyphenyl)-1H-1,2,4-triazol-1-yl]-benzoic acid]
hyphae in kidneys by histopathology (R. oryzae 99-892): no visible hyphae
neutrophil influx in the kidneys (R. oryzae 99-892): prominent
clinically achievable peak serum level [1]: ~38 µg/mL
clinically achievable trough serum level [1]: ~17 µg/mL
Fungicidal? (Mucor spp.; Mucor 97-1083, 24 h): Y (Cidal = MFC/MIC ≦ 4)
Fungicidal? (Mucor spp.; Mucor 97-1083, 48 h): Y (Cidal = MFC/MIC ≦ 4)
Fungicidal? (Mucor spp.; Mucor ramosissumus 97-1192, 24 h): Y (Cidal = MFC/MIC ≦ 4)
MFC (Mucor spp.; Mucor ramosissumus 97-1192, 24 h, read-out: MFC): 0.78 µg/mL (≈ 2.09 µM)
MIC (Mucor spp.; Mucor ramosissumus 97-1192, 24 h, read-out: MIC): 0.78 µg/mL (≈ 2.09 µM)
Fungicidal? (Mucor spp.; Mucor ramosissumus 97-1192, 48 h): Y (Cidal = MFC/MIC ≦ 4)
MFC (Mucor spp.; Mucor ramosissumus 97-1192, 48 h, read-out: MFC): 0.78 µg/mL (≈ 2.09 µM)
MIC (Mucor spp.; Mucor ramosissumus 97-1192, 48 h, read-out: MIC): 0.78 µg/mL (≈ 2.09 µM)
Fungicidal? (Mucor spp.; Mucor sp. 99-932, 24 h): Y (Cidal = MFC/MIC ≦ 4)
Fungicidal? (Mucor spp.; Mucor sp. 99-932, 48 h): Y (Cidal = MFC/MIC ≦ 4)
Fungicidal? (Mucor spp.; Mucor spp. MIC90/MFC90, 24 h): Y (Cidal = MFC/MIC ≦ 4)
MFC90 (Mucor spp.; Mucor spp. MIC90/MFC90, 24 h): 3.12 µg/mL (≈ 8.36 µM)
Fungicidal? (Mucor spp.; Mucor spp. MIC90/MFC90, 48 h): Y (Cidal = MFC/MIC ≦ 4)
MFC90 (Mucor spp.; Mucor spp. MIC90/MFC90, 48 h): 3.12 µg/mL (≈ 8.36 µM)
MIC90 (Mucor spp.; Mucor, 24 h): 3.12 µg/mL (≈ 8.36 µM)
MFC (Mucor spp.; Mucor, 24 h, Mucor 97-1083): 3.12 µg/mL (≈ 8.36 µM)
MIC (Mucor spp.; Mucor, 24 h, Mucor 97-1083): 3.12 µg/mL (≈ 8.36 µM)
MFC (Mucor spp.; Mucor, 24 h, Mucor sp. 99-932): 3.12 µg/mL (≈ 8.36 µM)
MIC (Mucor spp.; Mucor, 24 h, Mucor sp. 99-932): 3.12 µg/mL (≈ 8.36 µM)
MIC90 (Mucor spp.; Mucor, 48 h): 3.12 µg/mL (≈ 8.36 µM)
MFC (Mucor spp.; Mucor, 48 h, Mucor 97-1083): 3.12 µg/mL (≈ 8.36 µM)
MIC (Mucor spp.; Mucor, 48 h, Mucor 97-1083): 3.12 µg/mL (≈ 8.36 µM)
MFC (Mucor spp.; Mucor, 48 h, Mucor sp. 99-932): 3.12 µg/mL (≈ 8.36 µM)
MIC (Mucor spp.; Mucor, 48 h, Mucor sp. 99-932): 3.12 µg/mL (≈ 8.36 µM)
time to death compared to placebo (R. oryzae [2]; 2.7×10^3 spores R. oryzae 99-892, 10 mg/kg twice qod, five doses from 24 h post infection): significantly improved time to death
time to death versus placebo (R. oryzae [2]; R. oryzae 99-892, dosed twice daily): did not significantly improve time to death
decrease in brain fungal burden (R. oryzae [3]; [4]): greater than 10 fold
decrease in kidney fungal burden (R. oryzae [3]; [4]): greater than 10 fold
brain CFUs compared to placebo (R. oryzae [3]; R. oryzae 99-880, monotherapy, organs harvested day 3): neither drug alone was able to reduce brain CFUs
